Reference: US6703011B2, “Application of film forming technology to fragrance control release systems; and resultant fragrance control release systems” (International Flavors & Fragrances Inc., priority 1998, dated 2004)
Where a name gives a salt, the structure may show the parent alone.

How the values were obtained:
[1] = vapor pressure of fragrance components
[2] = FRAGRANCE PERMEATION TEST (diffusion cell, weight loss); assay type: physicochemical; conditions: for permeation rate through hydroxypropyl cellulose / permeation rate through polyvinyl alcohol: 35° C., film thickness about 150 microns; for permeation rate through polyvinyl alcohol: FIG. 5C (98% hydrolyzed polyvinyl acetate)
Source text: Referring to FIGS. 4A and 4B, fluid 46 is located in jar 44. Jar 44 has sidearm 45. The fluid 46 reaches fluid level 47. Directly in line with fluid level 47 is membrane 41. The diffusion membrane 41 is held in place with flanges 43 and jar lip 42, using bolts 401a and 401b which secures the flange in place. The sidearm 45 is closed using closure 49. The permeability apparatus is shown using reference numeral 40. The FRAGRANCE PERMEABILITY TEST is based on the use of the apparatus of FIGS. 4A and 4B. The weight of membrane 41 is taken, initially, before being placed within the flange 43 and the jar lip 42. Substance 46 for which the permeability is to be measured is placed into jar 44 to fluid level 47. The apparatus containing fluid 46 remains in place for a fixed period of time. At the end of that period of time, bolts 401a and 401b as well as 401c are loosened, the flange 43 removed and membrane 41 is removed and weighed, thereby gathering sufficient data to determine the permeability of the particular substance 46. The design and development of fragrance controlled release systems is built upon an understanding of the transport mechanisms of aroma chemicals and fragrances through polymers. The ability of the film forming polymers to sustain fragrance release was determined by permeation studies. A special diffusion cell has been developed to measure the steady state permeation of aroma chemicals and fragrances through polymeric films using weight loss. […] The polymeric film is mounted on the diffusion cell and is tightly secured by a glass ring fitted with three screws. […] The diffusant (fragrances, single or mixture of aroma chemicals) is kept in contact with the polymer film throughout the experiment period by filling the diffusion cell arm with the diffusant. The permeation rate of the diffusant is determined by monitoring the changes in the diffusion cell weight. The permeability coefficient, or permeability P, is useful in describing the rate of mass transport through a polymer at steady state. Permeability is related to two basic properties: diffusion and solubility. The permeability coefficient can be expressed by the diffusion coefficient (D) and the solubility coefficient (S). Their relationship is described by the following equation: This value is the actual weight loss that is being measured during our experiments. […] P=DS and the use of neat material (not dilution in a solvent), one can then solve the equation to determine the permeability coefficient using the cell dimension (surface area, A), the thickness of the film (L) and the weight loss data (Q=dM/dt): [formula] The effect of fragrance physical and chemical properties on its permeation rate through the film forming polymers was studied using the experimental setup described, supra. FIG. 5B, described in detail, supra, presents the effect of log10P on the permeation rate of the two model aroma chemicals through hydroxypropyl cellulose. The permeation studies were carried out at 35° C., and the temperature was kept constant within ±0.5 C. throughout the experiment period. […] The aroma chemicals studied, ethyl […] β-pinene, have approximately the same values of vapor pressure, but differ in their solubility in water. Ethyl […] lower value of log10P and thus is more water soluble than β-pinene. The permeation rates on two model aroma chemicals having a high and low log10P through a polyvinyl alcohol, having crystalline and better packed structure, were also studied and are illustrated in FIG. 5C, described in detail, supra. The permeation studies were carried out at 35° C., and the temperature was kept constant within +0.5° C. throughout the experiment period. […] The aroma chemicals studied, ethyl […] β-pinene, have about the same values of vapor pressure, but differ in their solubility in water. Ethyl […] lower value of log10P and thus is more water soluble than β-pinene.

[3] = evaporation rate of aroma chemical without the polymer; assay type: physicochemical; conditions: 35° C.
Method: The effect of fragrance physical and chemical properties on its permeation rate through the film forming polymers was studied using the experimental setup described, supra. FIG. 5B, described in detail, supra, presents the effect of log10P on the permeation rate of the two model aroma chemicals through hydroxypropyl cellulose. The permeation studies were carried out at 35° C., and the temperature was kept constant within ±0.5 C. throughout the experiment period. The thickness of the films studied was about 150 microns. The aroma chemicals studied, ethyl […] β-pinene, have approximately the same values of vapor pressure, but differ in their solubility in water. Ethyl […] lower value of log10P and thus is more water soluble than β-pinene. The permeation rates on two model aroma chemicals having a high and low log10P through a polyvinyl alcohol, having crystalline and better packed structure, were also studied and are illustrated in FIG. 5C, described in detail, supra. The permeation studies were carried out at 35° C., and the temperature was kept constant within +0.5° C. throughout the experiment period. The thickness of the films studied was about 150 microns. The aroma chemicals studied, ethyl […] β-pinene, have about the same values of vapor pressure, but differ in their solubility in water. Ethyl […] lower value of log10P and thus is more water soluble than β-pinene.

[4] = polymer film material: carboxymethyl cellulose
[5] = polymer film material: polyvinyl alcohol (74% hydrolyzed)
[6] = polymer film material: polyvinyl alcohol (98% hydrolyzed)

Compound	Vapor Pressure ([1]; at 25° C.)	further results
CC1=CC(C)C(C=O)CC1 (stereo not drawn)	0.3 mm/Hg	
CC(=O)O[C@@H]1C[C@H]2CC[C@]1(C)C2(C)C (racemic) [isobornyl acetate]	0.09 mm/Hg	
CC(OC=O)C1CCCC(C)(C)C1 (stereo not drawn) [C.P. FORMATE®, the formic acid ester of 1,1-dimethyl-3(1-hydroxyethyl)cyclohexane, reference compound]		Permeation ([2]; polymer film material: hydroxypropyl cellulose (molecular weight = 100,000)): 2.5 × 10^−4 mg-mm thickness/cm^2 area - mi; Vapor Pressure ([1]; figure legends, unit inferred): 0.1 mmHg
CC1(C)C2CCC1(C)C(O)C2 (stereo not drawn) [Example 1-borneol, 1-borneol]	0.02 mm/Hg	
CC(=O)C1(C)CC2=C(CCCC2(C)C)CC1C (stereo not drawn) [ISO E SUPER ®]	0.002 mm/Hg	
CC(C=O)Cc1ccc(C(C)(C)C)cc1 (stereo not drawn) [LILIAL ®]	0.003 mm/Hg	
CC(=O)c1cc2c(cc1C)C(C)(C)C(C)CC2(C)C (stereo not drawn) [TONALID ®]	0.0001 mm/Hg	
CC(=O)OC1CCC(C(C)(C)C)CC1 (stereo not drawn) [VERTENEX ® HC]	0.03 mm/Hg	
C=CCOC(=O)COCCC(C)C [allyl amyl glycolate]	0.07 mm/Hg	
CC(=O)OCc1ccccc1 [benzyl acetate]	0.1 mm/Hg	
CC12CCC(CC1=O)C2(C)C (stereo not drawn) [camphor]	0.1 mm/Hg	
CC/C=C\CCOC(C)=O [cis-3-hexenyl acetate]	2.0 mm/Hg	
CC/C=C\CCOC(=O)c1ccccc1O [cis-3-hexenyl salicylate]	0.0008 mm/Hg	
CC(C)=CCCC(C)CCO (stereo not drawn) [citronellol]	0.009 mm/Hg	
CC(C=O)Cc1ccc(C(C)C)cc1 (stereo not drawn) [cyclamal]	0.004 mm/Hg	
C=CC(C)CCCC(C)(C)O (stereo not drawn) [dihydromyrcenol]	0.09 mm/Hg	
C/C=C(\C)C(=O)OCC [ethyl tiglate]		permeation rate through hydroxypropyl cellulose [2]: exactly the same as its evaporation rate without the polymer; permeation rate through polyvinyl alcohol [2]: about 1.8×10^−4; permeation rate through hydroxypropyl cellulose ([2]; listed as Ethyl tiglate): equal to its evaporation rate; Permeation [2, 4]: 2.8 × 10^−3 mg-mm thickness/cm^2 area - mi; Permeation [2, 5]: 5 × 10^−3 mg-mm thickness/cm^2 area - mi; Permeation [2, 6]: 2 × 10^−3 mg-mm thickness/cm^2 area - mi; overall permeation rate ([2]; through positively charged polymers POLYMER LK and POLYMER LR-400 (FIG. 5I)): 5.8×10^−4; Vapor Pressure ([1]; figure legends, unit inferred): 1.8 mmHg
CCCCCCC(C=O)=Cc1ccccc1 [hexyl cinnamic aldehyde]	0.0003 mm/Hg	
C=CC(C)(O)CCC=C(C)C (stereo not drawn) [linalool]	0.05 mm/Hg	
C=CC(C)(CCC=C(C)C)OC(C)=O (stereo not drawn) [linalyl acetate]	0.07 mm/Hg	
C=CCc1ccc(OC)cc1 [methyl chavicol]	0.09 mm/Hg	
CCCCCCCCCC(C)C=O (stereo not drawn) [methyl nonyl acetaldehyde]	0.009 mm/Hg	
CCCCCCCC=O [n-octanal]		Permeation ([2]; not told): 2.8 × 10^−3 mg-mm thickness/cm^2 area - mi
CC(=O)OC(C)c1ccccc1 (stereo not drawn) [styralyl acetate]	0.1 mm/Hg	
CC1=CCC(C(C)(C)O)CC1 (stereo not drawn) [α-terpineol]	0.02 mm/Hg	
CC(=O)/C=C/C1=C(C)CCCC1(C)C [β-ionone]	0.006 mm/Hg	
OCCc1ccccc1 [β-phenyl ethyl alcohol]	0.02 mm/Hg	
C=C1CCC2CC1C2(C)C (stereo not drawn) [β-pinene]		permeation rate through hydroxypropyl cellulose [2]: 2.7×10^−4; permeation rate through polyvinyl alcohol [2]: about 1.8×10^−4; Permeation [2, 4]: 2.8 × 10^−3 mg-mm thickness/cm^2 area - mi; Permeation [2, 5]: 2.5 × 10^−3 mg-mm thickness/cm^2 area - mi; Permeation [2, 6]: 2 × 10^−3 mg-mm thickness/cm^2 area - mi; permeation rate ([2]; through POLYMER LK (FIG. 5K, graph 596)): 3.9×10^−5; permeation rate ([2]; through POLYMER LR-400 (FIG. 5K, graph 595)): 7.5×10^−5; Vapor Pressure ([1]; figure legends, unit inferred): 2.2 mmHg; evaporation rate without the polymer [3]: about 0.15
peach aldehyde coeur	0.002 mm/Hg	
